The test system of experiment [1] is HCV replicon (5-2 Luc replicon-comprising cells). Description: HCV replicon assay (luciferase). Format: cell-based. As to conditions: 5-2 Luc replicon cells, 24 hours with compound; read-out: Replicon IC50 (50% reduction in luciferase activity). From the text: In one embodiment, the inhibitory activity of the compounds can be confirmed in a replicon assay that assesses the ability of a test compound to block or inhibit HCV replication in replicon cells. One example of a suitable replicon assay is the liver cell-line Huh 7-based replicon assay described in Lohmann et al., 1999, Science 285:110-113. A specific example of this replicon assay which utilizes luciferase translation is provided in the Examples Section. In one embodiment of this assay, the amount of test compound that yields a 50% reduction in translation as compared to a control cell (IC50) may be determined.
The inhibitory activity of certain exemplary compounds of the invention was confirmed using an HCV replicon assay. The HCV replicon can include such features as the HCV 5′ untranslated region including the HCV IRES, the HCV 3′ untranslated region, selected HCV genes encoding HCV polypeptides, selectable markers, and a reporter gene such as luciferase, GFP, etc. In the assay, actively dividing 5-2 Luc replicon-comprising cells (obtained from Ralf Bartenschlager; see Lohmann et al., 1999, Science 285:110-113) were seeded ata density of between about 5,000 and 7,500 cells/well onto 96 well plates (about 90 μl of cells per well) and incubated at 37° C. and 5% CO2 for 24 hours. Then, the test compound (in a volume of about 10 μl) was added to the wells at various concentrations and the cells were incubated for an additional 24 hours before luciferase assay. Briefly, the Bright-Glo reagent was diluted 1:1 with PBS and 100 μl of diluted reagent was added to each well. After 5 min of incubation at room temperature, luciferin emission was quantified with a luminometer. In this assay, the amount of test compound that yielded a 50% reduction in luciferase activity (IC50) was determined.
Background: A replicon is a self-replicating genome or part of one, used to study replication in cells.

Experiment [2] deals with HCV nonstructural protein NS5A or NS3. Description: Quantitative Western blot assay in 9-13 replicon cells. Conditions: second symbol of column Replicon/Western, 48 hours with compound, read-out: Western IC50 (50% reduction in the amount of NS5A or NS3 protein). Format: cell-based. As for the experimental part:
Alternatively, the inhibitory activity of the compounds can be confirmed using a quantitative Western immunoblot assay utilizing antibodies specific for HCV non-structural proteins, such as NS3, NS4A NS5A and NS5B. In one embodiment of this assay, replicon cells are treated with varying concentrations of test compound to determine the concentration of test compound that yields a 50% reduction in the amount of a non-structural protein produced as compared to a control sample (IC50). A single non-structural protein may be quantified or multiple non-structural proteins may be quantified. Antibodies suitable for carrying out such immunoblot assays are available commercially (e.g., from BIODESIGN International, Saco, Me.).
Certain exemplary compounds of the invention were also tested for their ability to inhibit HCV replication using a quantitative Western blot analysis with antibodies specific for the HCV nonstructural protein NS5A or NS3. Actively dividing 9-13 replicon cells were seeded into 6-well plates at a density of 1×10^5 cells/well in a volume of 2 ml/well and incubated at 37° C. and 5% CO2 for 24 hours. Various concentrations of test compounds (in a volume of 10 ul) were added to the wells and the cells incubated for another 48 hours. […] The membrane was then soaked in substrate solution (Pierce) and exposed to a film or quantified using an imager. […]

pIC50: −log10 of the molar value.

Consider `CC(=O)N1CCN(c2cccc(Cl)c2-c2cc(-c3ccc(-c4noc(C(Cl)Cl)n4)c(Cl)c3)on2)CC1` [5-Dichloromethyl-3-[4-[3′-[2′-chloro-6′-(N-acetyl-4-piperazinyl)phenyl]-5′-isoxazolyl]-2-chlorophenyl]-1,2,4-oxadiazole], for which the pIC50 (as a rule, −log10 of the IC50, conventionally taken in molar units) in experiment [1] is below 5.00.

`CC(=O)N1CCN(c2cccc(Cl)c2-c2cc(-c3ccc(-c4noc(C(Cl)Cl)n4)c(F)c3)on2)CC1` [5-Dichloromethyl-3-[4-[3′-[2′-chloro-6′-(N-acetyl-4-piperazinyl)phenyl]-5′-isoxazolyl]-2-fluorophenyl]-1,2,4-oxadiazole]: in experiment [1], the pIC50 is at least 5.00.

Take `COc1cccc(C(F)(F)F)c1-c1cc(-c2cccc(-c3noc(C(Cl)Cl)n3)c2)on1` [(I) R2=CF3, R6=OMe, 5-Dichloromethyl-3-[3-[3′-(2′-methoxy-6′-trifluoromethylphenyl)-5′-isoxazolyl]phenyl]-1,2,4-oxadiazole]: in experiment [1], the pIC50 is below 5.00.

With `Clc1cccc(Cl)c1-c1cc(-c2cccc(-c3noc(C(Cl)Cl)n3)c2)on1` [(I) R2=Cl, R6=Cl, 5-Dichloromethyl-3-[3-[3′-(2′,6′-dichlorophenyl)-5′-isoxazolyl]phenyl]-1,2,4-oxadiazole], the pIC50 in experiment [2] and in experiment [1] was at least 5.00 in each case.

In the case of `Fc1cc(-c2cc(-c3c(Cl)cccc3Cl)no2)ccc1-c1noc(C(Cl)Cl)n1` [(I) R2=Cl, R6=Cl, R8=F, 5-Dichloromethyl-3-[4-[3′-(2′,6′-dichlorophenyl)-5′-isoxazolyl]-6-fluorophenyl]-1,2,4-oxadiazole], the pIC50 in experiment [1] was at least 5.00.

For the compound `Clc1cccc(Cl)c1-c1cc(-c2ccccc2-c2noc(C(Cl)Cl)n2)on1` [(II) R2=Cl, R6=Cl, 5-Dichloromethyl-3-[2-[3′-(2′,6′-dichlorophenyl)-5′-isoxazolyl]phenyl]-1,2,4-oxadiazole], the pIC50 in experiment [1] is at least 5.00.

Regarding `Fc1cccc(C(F)(F)F)c1-c1cc(-c2ccc(-c3noc(C(Cl)Cl)n3)cc2)on1` [(III) R2=CF3, R6=F, 5-Dichloromethyl-3-[4-[3′-(2′-fluoro-6′-trifluoromethylphenyl)-5′-isoxazolyl]phenyl]-1,2,4-oxadiazole], the negative logarithm of the IC50 (pIC50) in experiment [1] was at least 5.00.

In the case of `COc1cccc(C(F)(F)F)c1-c1cc(-c2ccc(-c3noc(C(Cl)Cl)n3)cc2)on1` [(III) R2=CF3, R6=OMe, 5-Dichloromethyl-3-[4-[3′-(2′-methoxy-6′-trifluoromethylphenyl)-5′-isoxazolyl]phenyl]-1,2,4-oxadiazole], in experiment [1], the negative-log IC50 (pIC50) is at least 5.00.

On to `Clc1cccc(Cl)c1-c1cc(-c2ccc(-c3noc(C(Cl)Cl)n3)cc2)on1` [(III) R2=Cl, R6=Cl, 5-Dichloromethyl-3-[4-[3′-(2′,6′-dichlorophenyl)-5′-isoxazolyl]phenyl]-1,2,4-oxadiazole], for which, in experiment [1], the negative logarithm of the IC50 (pIC50) is at least 5.00.

Consider `Clc1cc(-c2cc(-c3c(Cl)cccc3Cl)no2)ccc1-c1noc(C(Cl)Cl)n1` [(III) R2=Cl, R6=Cl, R8=Cl, 5-Dichloromethyl-3-[4-[3′-(2′,6′-dichlorophenyl)-5′-isoxazolyl]-2-chlorophenyl]-1,2,4-oxadiazole], for which, in experiment [1], the negative-log IC50 (pIC50) is below 5.00.

In the case of `Cc1cc(-c2noc(C(Cl)Cl)n2)ccc1-c1cc(-c2c(Cl)cccc2Cl)no1` [(III) R2=Cl, R6=Cl, R10=Me, 5-Dichloromethyl-3-[4-[3′-(2′,6′-dichlorophenyl)-5′-isoxazolyl]-3-methylphenyl]-1,2,4-oxadiazole], in experiment [1], the pIC50 is at least 5.00.

For the compound `Fc1cccc(Cl)c1-c1cc(-c2ccc(-c3noc(C(Cl)Cl)n3)cc2)on1` [(III) R2=Cl, R6=F, 5-Dichloromethyl-3-[4-[3′-(2′-chloro-6′-fluorophenyl)-5′-isoxazolyl]phenyl]-1,2,4-oxadiazole], the negative logarithm of the IC50 (pIC50) in experiment [1] is at least 5.00.

With `Clc1cccc(Cl)c1-c1cc(-c2ccnc(-c3noc(C(Cl)Cl)n3)c2)on1` [(Ia) R2=Cl, R6=Cl, 5-Dichloromethyl-3-[4-[3′-(2′,6′-dichlorophenyl)-5′-isoxazolyl]-4-pyridyl]-1,2,4-oxadiazole], in experiment [1], the negative logarithm of the IC50 (pIC50) is below 5.00.
